Results: US12053529B2, “Amino-reactive positively charged ATRP initiators that maintain their positive charge during synthesis of biomacro-initiators” (Carnegie Mellon University, priority 2018, dated 2024)

Columns and labels:
[1] = system: Uricase from Candida sp., native; assay: Michaelis-Menten kinetics, uric acid oxidation, native uricase; format: biochemical; conditions: pH 8.5, 37° C.
Protocol: (§1) CT and Lysozyme were used as received. AChE and Uricase were dialyzed in 25 mM sodium phosphate (pH 7.0) using a 25 kDa molecular weight cutoff dialysis tube in a refrigerator for 24 hours and then lyophilized. Copper (II) chloride, sodium ascorbate, 1,1,4,7,10,10-hexamethyltriethylenetetramine (HMTETA), 2-bromo-2-methylpropionyl bromide, 3-(dimethylamino)-1-propylamine, N,N′-diisopropylcarbodimine, fluorescamine, acetylthiocholine iodide, 5,5′-dithiobis(2-nitrobenzoic acid) (DTNB) were purchased from Sigma Aldrich. 4-bromobutyric acid and N-hydroxysuccinimide were purchased from TCI USA (Portland, OR). Micro BCA assay kit was purchased from Thermo Fisher Scientific.
(§2) Uricase: Uric acid (0-400 μL of 300 μM in 50 mM sodium tetraborate (pH 8.5)) was mixed with 50 mM sodium phosphate ([…], pH 8.5). Native, initiator and polymer conjugate solution (10 μL, 20 μM of Uricase) was added to the substrate solution. The initial rate was monitored by recording the decreasing in absorbance as 290 nm using an UV-VIS absorbance spectrometer with a temperature controlled cell folder at 37° C. Michaelis-Menten parameters were determined by nonlinear curve fitting of initial rate versus substrate concentration plots using Prism 7 software (GraphPad).

[2] = system: Uricase from Candida sp., positive initiator (+); assay: Michaelis-Menten kinetics, uric acid oxidation, uricase-positive initiator; format: biochemical; conditions: pH 8.5, 37° C.
Protocol: as §1
(§3) Uricase: 200 μL of NHS-functionalized ATRP initiator solution in DMSO (100 μmol, 34 mg for neutral and 52 mg for positive initiator, respectively) was added to Uricase solution (20 mg of […] Uricase in 20 mL of 100 mM phosphate (pH 7.0)) and stirred at room temperature for 2 hours. Uricase-initiator conjugates were dialyzed in 25 mM sodium phosphate (pH 7.0) using a 25 kDa molecular cutoff dialysis tube in a refrigerator for 24 hours and then lyophilized. The concentration of Uricase initiator conjugates was determined using a Micro BCA Assay Kit (ThermoFisher Scientific).
as §2

[3] = system: Uricase from Candida sp., neutral initiator (N); assay: Michaelis-Menten kinetics, uric acid oxidation, uricase-neutral initiator; format: biochemical; conditions: pH 8.5, 37° C.
Protocol: as §1, §3, §2

[4] = system: Uricase from Candida sp., neutral initiator (N)-pCBMA; assay: Michaelis-Menten kinetics, uric acid oxidation, uricase (N)-pCBMA; format: biochemical; conditions: pH 8.5, 37° C.
Protocol: as §1
as §3, with “Uricase-initiator conjugates were dialyzed in 25 mM sodium phosphate (pH 7.0) using a 25 kDa molecular cutoff dialysis tube in a refrigerator for 24 hours and then lyophilized.” left out
(§4) CT-pCBMA and pSMA conjugate synthesis: A solution of monomer (230 mg for CBMA and 246 mg for SMA, 1.0 mmol respectively) and CT-initiator (23 mg for neutral and 25 mg for positive initiator, 10 μmol of initiator) in 100 mM sodium phosphate (20 mL, pH 7) was sealed and bubbled with nitrogen gas in an ice bath for 30 minutes. […] Conjugate CT content was determined by BCA assay as described elsewhere (Lee et al. 2005, supra). […]
as §2, with “Native, initiator and polymer conjugate solution (10 μL, 20 μM of Uricase) was added to the substrate solution.” left out

[5] = system: Uricase from Candida sp., positive initiator (+)-pCBMA; assay: Michaelis-Menten kinetics, uric acid oxidation, uricase (+)-pCBMA; format: biochemical; conditions: pH 8.5, 37° C.
Protocol: as §1
as §3, with “Uricase-initiator conjugates were dialyzed in 25 mM sodium phosphate (pH 7.0) using a 25 kDa molecular cutoff dialysis tube in a refrigerator for 24 hours and then lyophilized.” left out
as §4
as §2, with “Native, initiator and polymer conjugate solution (10 μL, 20 μM of Uricase) was added to the substrate solution.” left out

[6] = system: Uricase from Candida sp., positive initiator (+)-pSMA; assay: Michaelis-Menten kinetics, uric acid oxidation, uricase (+)-pSMA; format: biochemical; conditions: pH 8.5, 37° C.
Protocol: as §1
as §3, with “Uricase-initiator conjugates were dialyzed in 25 mM sodium phosphate (pH 7.0) using a 25 kDa molecular cutoff dialysis tube in a refrigerator for 24 hours and then lyophilized.” left out
as §4
as §2, with “Native, initiator and polymer conjugate solution (10 μL, 20 μM of Uricase) was added to the substrate solution.” left out

[7] = system: Uricase from Candida sp., neutral initiator (N)-pSMA; assay: Michaelis-Menten kinetics, uric acid oxidation, uricase (N)-pSMA; format: biochemical; conditions: pH 8.5, 37° C.
Protocol: as §1
as §3, with “Uricase-initiator conjugates were dialyzed in 25 mM sodium phosphate (pH 7.0) using a 25 kDa molecular cutoff dialysis tube in a refrigerator for 24 hours and then lyophilized.” left out
as §4
as §2, with “Native, initiator and polymer conjugate solution (10 μL, 20 μM of Uricase) was added to the substrate solution.” left out

[8] = system: avidin, positive initiator (+)-pCBMA; assay: biotin binding rate, avidin (+)-pCBMA
Text: (§5) Avidin: Avidin (Avi) is a tetrameric protein (homo-4-mer) that is approximately 66 kDa in its tetrameric form and is found in the egg whites of birds, reptiles, and amphibians. Its highly specific activity arises from binding strongly to biotin and this binding event is one of the strongest noncovalent interactions known, making avidin extremely useful for biochemical assays/probes and protein purification chemistries. Each sub-unit of avidin can bind to one biotin molecule. In agreement with CT and Lyz, the number of initiator modifications when using the positive initiator was less than that achieved with neutral initiator (4.3 versus 7.9). The activities of avidin samples were measured next using two different techniques (TABLE 6). Biotin binding rates were determined kinetically and total equilibrium biotin binding were determined spectophotometrically using 4′-hydroxyazobenzene-2-carboxylic acid (HABA) dye. Since the avidin-biotin binding is so strong, the displacement of HABA by biotin in the active site can be measured and the amount of bound biotin can be determined by the decrease in absorbance at 500 nm. The biotin binding rate of Avi-neutral initiator was decreased to 0.48 s^−1 from 105.2 s^−1 for native avidin.

[9] = system: avidin, neutral initiator (N)-pCBMA; assay: biotin binding rate, avidin (N)-pCBMA
Text: as §5

[10] = system: avidin, positive initiator (+); assay: biotin binding rate, avidin-positive initiator
Text: as §5

[11] = system: avidin, native; assay: biotin binding rate, native avidin
Text: as §5

O=c1[nH]c(=O)c2[nH]c(=O)[nH]c2[nH]1 [uric acid]
Km [1]: 12.9 ± 0.6 µM | kcat [1]: 3.42 ± 0.05 s⁻¹ | kcat/KM [1]: 0.266 ± 0.013 µM⁻¹ s⁻¹ | Km [2]: 25.4 ± 1.4 µM | kcat [2]: 2.14 ± 0.04 s⁻¹ | kcat/KM [2]: 0.084 ± 0.005 µM⁻¹ s⁻¹ | Km [3]: 119 ± 9.7 µM | kcat [3]: 0.18 ± 0.01 s⁻¹ | kcat/KM [3]: 0.002 ± 0.0006 µM⁻¹ s⁻¹ | KM [4]: undetectable | kcat [4]: undetectable | kcat/KM [4]: undetectable | Km [5]: 22 ± 7.6 µM | kcat [5]: 0.03 ± 0.003 s⁻¹ | kcat/KM [5]: 0.001 ± 0.0005 µM⁻¹ s⁻¹ | KM [6]: undetectable | kcat [6]: undetectable | kcat/KM [6]: undetectable | KM [7]: undetectable | kcat [7]: undetectable | kcat/KM [7]: undetectable

O=C(O)CCCC[C@@H]1SC[C@@H]2NC(=O)N[C@@H]21 [biotin]
biotin binding rate [8]: 1.64 ± 0.08 s⁻¹ | biotin binding rate [9]: 0.23 ± 0.07 s⁻¹ | increase in biotin binding rate compared to Avi-neutral initiator ([10]; Avi-positive initiator vs Avi-neutral initiator): 1.7 fold | biotin binding rate ([10]; avidin (+)): 1.69 ± 0.04 s⁻¹ | biotin binding rate [11]: 92.5 ± 14.1 s⁻¹
